# In US20240390295A1, “METHODS FOR TREATING DEPRESSION” (JANSSEN PHARMACEUTICA NV, priority 2020, published 2024):
# System: adult patients (aged 18-64 years) with TRD
# Test: CADSS-defined dissociation (CADSS total score >4)
# Format: in vivo, human
# Conditions: for mean individual CADSS scores at recurrence: across follow-up timeframes
# Excerpt: One of skill in the art would readily be able to measure a patient's adverse events from experience and one or more tools utilized to make such assessments. For example, the Clinician-Administered Dissociative States Scale (CADSS) is an technique utilized to measure present-state dissociative symptoms, and, thus, may be utilized to assess treatment-emergent dissociative symptoms. The CADSS consists of 23 subjective items, divided into 3 components: Depersonalization (Items 3 to 7, 20, and 23), derealization (Items 1, 2, 8 to 13, 16 to 19, and 21) and amnesia (Items 14, 15, and 22). Participant's responses are coded on a 5-point scale (0=not at all through to 4=extremely). Thus, higher CADSS values represent a worse dissociative state, whereas lower CADSS values are indicative of a mild dissociative state.
# Vital signs, the Clinician-Administered Dissociative States Scale (CADSS), and the Modified Observer's Assessment of Alertness/Sedation (MOAA/S) were assessed at baseline and all treatment sessions (predose, and at 40 minutes, 1 hour [vital signs only unless spontaneously reported by the patient], and 1.5 hours postdose). Routine blood pressure (BP) readings were conducted at each treatment session, with elevations reported as AEs based on the clinician's judgement. The CADSS assessed treatment-emergent dissociative symptoms and consists of 23 questions, each coded on a 5-point scale (0=not at all, 1-mild, 2-moderate, 3=severe, 4-extreme), yielding a total score 0-92.11 A CADSS total score >4 indicated the presence of dissociative symptoms. The MOAA/S assessed treatment-emergent sedation: scores range from (=no response to painful stimulus to 5=readily responds to name spoken in normal tone. Any decrease in MOAA/s from pre-dose (score <5) indicated some degree of sedation. An abnormal elevation in BP was defined as systolic BP ≥180 mmHg and ≥20 mmHg higher than baseline and/or diastolic BP ≥105 mmHg and ≥15 mmHg greater than baseline.
# This analysis included any treatment sessions in which patients received ESK (either open-label or blinded). The occurrence and severity of AEs were assessed within the following timeframes: Month 1 (Week 1 and Weeks 2-4), Month 2 (Weeks 5-8), Months 3-6 and Months 6-12. Severity of clinician-reported AEs were scored as 0 (no AE), 1 (mild), 2 (moderate), and 3 (severe). To examine AEs in individual patients over time, only patients who received at least one ESK dose in the following period were included in the analyses of each respective period. Thus, patient data were retained in (i) Week 1 if the patient received ≥1 ESK dose in Weeks 2-4, (ii) Weeks 2-4 if the patient received ≥1 ESK dose in Weeks 5-8, (iii) Weeks 5-8 if the patient received ≥1 ESK dose in Months 3-6, and (iv) Months 3-6 if the patient received ≥1 ESK dose in Months 6-12.
smiles,measurement,setting,value
"CN[C@]1(c2ccccc2Cl)CCCCC1=O [esketamine, (S)-2-(2-chlorophenyl)-2-(methylamino)cyclohexanone]",CADSS-defined dissociation,"Months 3-6, AE once in Week 1",42.7%
same,CADSS-defined dissociation,"Months 3-6, AE twice in Week 1",61.3%
same,CADSS-defined dissociation,"Months 3-6, No AE in Week 1",19.4%
same,CADSS-defined dissociation,"Months 3-6, overall rate for timeframe",38.6%
same,CADSS-defined dissociation,"Months 6-12, AE once in Week 1",26.8%
same,CADSS-defined dissociation,"Months 6-12, AE twice in Week 1",38.7%
same,CADSS-defined dissociation,"Months 6-12, No AE in Week 1",15.9%
same,CADSS-defined dissociation,"Months 6-12, overall rate for timeframe",25.9%
same,CADSS-defined dissociation,"Week 1, overall rate for timeframe",56.6%
same,CADSS-defined dissociation,"Weeks 2-4, AE once in Week 1",59.1%
same,CADSS-defined dissociation,"Weeks 2-4, AE twice in Week 1",88.8%
same,CADSS-defined dissociation,"Weeks 2-4, No AE in Week 1",24.8%
same,CADSS-defined dissociation,"Weeks 2-4, overall rate for timeframe",53.1%
same,CADSS-defined dissociation,"Weeks 5-8, AE once in Week 1",32.5%
same,CADSS-defined dissociation,"Weeks 5-8, AE twice in Week 1",64.6%
same,CADSS-defined dissociation,"Weeks 5-8, No AE in Week 1",15.6%
same,CADSS-defined dissociation,"Weeks 5-8, overall rate for timeframe",34.9%
same,patients with maximum CADSS score >42,"human, in vivo, other: intranasal",< 3 patients
same,"measure-based dissociation not reported during Week 1, patients","human, in vivo, other: nasal spray (intranasal), 1 week",43%
same,mean individual CADSS scores at recurrence,maximum CADSS total score <=14,1.2-1.4
same,mean individual CADSS scores at recurrence,maximum CADSS total scores 15-24 and 24-42,1.3-2.1
